Earlier results, collected in patent US5595896A, “Expression of heterologous genes in transgenic plants and plant cells using plant asparagine synthetase promoters” (New York University, priority 1993, dated 1997).
Numbered stars: 1 amine (or outer) side, 2 acyl side, 3 side chain; on linkers, the order of the positions; unused ones are H or OH. Bridge positions count the residues as written; N and C are the ends. Square brackets hold non-standard residues; d marks the D form. Peptide text beside a SMILES is read from it. I, II: the chains in the order shown. Actinocin(9to1) = Cc1c2oc3c(C)ccc(C(=O)[*:1])c3nc-2c(C(=O)[*:2])c(N)c1=O; NMeV = CN[CH](C(=O)O)C(C)C; Sar = CNCC(=O)O

System: PLANT AS
Details: not given

Compound | Inhibition (%)
CS(=N)(=O)CC[C@H](N)C(=O)O (stereo partly drawn) [L-methionine-S-sulphoximine] | 8.6

Same assay, conditions: Asparagine analogues, 2 mM

Compound | Inhibition (%)
CC(C(N)=O)C(N)C(=O)O (racemic) [β-methyl-DL-asparagine] | 55.1
N[C@@H](CS(N)(=O)=O)C(=O)O [2-amino-2-carboxy-L-ethanesulphonamide] | 42.5
[N-]=[N+]=CC(=O)C[C@H](N)C(=O)O [5-diazo-4-oxo-L-norvaline] | 40.3
CN[C@@H](CC(N)=O)C(=O)O [N-α-methyl-L-asparagine] | 38.8
NC(=O)[C@H](O)[C@H](N)C(=O)O [erythro-β-hydroxy-L-asparagine] | 59.5
NC(=O)[C@@H](O)[C@H](N)C(=O)O [threo β-hydroxy-L-asparagine] | 45.2
N-ethyl-L-asparagine | 47.2
N-methyl-L-asparagine | 57.6

Same assay, conditions: Aspartate analogues, 2 mM

Compound | Inhibition (%)
NC(=O)[C@H](N)[C@H](N)C(=O)O (relative stereo) [meso-diaminosuccinamate] | 50.6
N[C@@H](CC(=O)CBr)C(=O)O [5-bromo-4-oxo-L-norvaline] | 49.5
N[C@@H](CC(=O)CCl)C(=O)O [5-chloro-4-oxo-L-norvaline] | 42.1
N[C@H](C(=O)O)[C@@H](O)C(=O)O [erythro β-hydroxy-L-aspartate] | 65.4
C[C@@H](C(=O)O)[C@H](N)C(=O)O [erythro β-methyl-L-aspartate] | 51.4
C[C@H](C(=O)O)[C@H](N)C(=O)O [threo β-methyl-L-aspartate] | 58.4

Same assay, conditions: Glutamine analogues, 5 mM

Compound | Inhibition (%)
2-hydroxyethyl-L-glutamine | 31.1
NC(=O)CCCC(N)C(=O)O (racemic) [DL-homoglutamine] | 42.4
NC(=O)CCC(NC(=O)OCc1ccccc1)C(=O)O (racemic) [N-CBZ-DL-glutamine] | 30.5
NC(=O)CC[C@@H](N)C(=O)O [D-glutamine] | 14.8
NC(=O)NC[C@H](N)C(=O)O [L-albizziine] | 85.2
[N-]=[N+]=CC(=O)OC[C@H](N)C(=O)O [L-azaserine] | 97.5
NC(=O)CC[C@H](N)C(N)=O [L-glutamate diamide] | 9.1
CCOC(=O)CC[C@H](N)C(=O)O [L-glutamate-γ-ethyl ester] | 23.6
COC(=O)CC[C@H](N)C(=O)O [L-glutamate-γ-methyl ester] | 27.2
CC(=O)N[C@@H](CCC(N)=O)C(=O)O [N-acetyl-L-glutamine] | 10.2
NC(=O)SC[C@H](N)C(=O)O [S-carbamoyl-L-cysteine] | 35.6
C=C(C[C@H](N)C(=O)O)C(N)=O [γ-methylene-L-glutamine] | 20.4

System: GS
Details: toxin produced by P. syringae, coinfected alfalfa plants

Compound | GS activity inhibited by toxin
N[C@@H](CCC1(O)CNC1=O)C(=O)O (stereo partly drawn) [Tabtoxinine β-lactam] | severely inhibited

System: AS
Details: actinomycin D treatment, cotyledons of germinating cotton seedlings

Compound | induction of AS activity
Cc1c2oc3c(C)ccc(C(=O)NC4C(=O)NC(C(C)C)C(=O)N5CCCC5C(=O)N(C)CC(=O)N(C)C(C(C)C)C(=O)OC4C)c3nc-2c(C(=O)NC2C(=O)NC(C(C)C)C(=O)N3CCCC3C(=O)N(C)CC(=O)N(C)C(C(C)C)C(=O)OC2C)c(N)c1=O (centres unmarked) [actinomycin D] (I: TVP[Sar][NMeV] / II: TVP[Sar][NMeV]; ester I:1-I:C, II:1-II:C; linker I:N-II:N via Actinocin(9to1); configuration not given here) | abolished
